Results: US6841367B2, “Human receptor tyrosine kinase, KDR” (Merck & Co., Inc., priority 1997, dated 2005)

System: KDR
Experiment: Tyrosine autophosphorylation of KDRcyt mutants (antiphosphotyrosine Western blot)
Format: biochemical, human
Settings: 1 mM ATP, 37° C., 10 min; Western blot with antiphosphotyrosine antibody PY20 (FIG. 4A)
Description: Purified KDRcytE848 and KDRcytV848 were incubated with at concentrations of 12 ng or 120 ng, respectively, or without 1 mM ATP at 37° C. for 10 min. The reaction was stopped by the addition of an equal volume of 2× SDS-PAGE sample buffer and boiled for 5 min. Reaction products were separated by 7.5%/SDS-PAGE and analyzed by Western blot probed with the antiphosphotyrosine antibody PY20 (Transduction Laboratories; FIG. 4A), or an anti-KDR antibody (Santa Cruz Biotechnology; FIG. 4B) visualized using the ECL detection kit and quantified by scanning with a densitometer (Molecular Dynamics).

For “GST-KDRcytV848: GST fusion of the human KDR cytoplasmic tyrosine kinase domain with Val at position 848 (SEQ ID NO:2)”, the autophosphorylation was “resulted in autophosphorylation”.
